Results from patent US7179825B2, “Retinoic acid mimetic anilides” (Janssen Pharmaceutica N.V., priority 1997, dated 2007).

Columns and labels:
[1] = system: metabolism of retinoic acid in human breast cancer cells; assay: Inhibition of retinoic acid (RA) metabolism (Example C.1); format: cell-based; conditions: MCF-7 human breast cancer cells, 3H-RA as substrate; concentration needed to reduce the amount of metabolites to 50% of the control
In short: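 MCF-7 cells, pre-stimulated with RA the day before, incubated with ³H-RA substrate and test compound in 1% DMSO. Polar ³H-metabolites separated from unmetabolized RA and counted by scintillation. IC50 is the concentration cutting metabolite formation to 50% of control, with blank run alongside.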

Ovariectomized rats = assay: Vaginal keratinization test on ovariectomized rats (Example C.2); format: in vivo; conditions: estradiol undecylate induced keratinization, per os once daily on days 1-3, active dose = 50% of rats show complete suppression
In short: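 Ovariectomized rats given s.c. estradiol undecylate (100 μg per 100 g body weight in sesame oil), then oral compound once daily on days 1-3 (vehicle PEG 200). Vaginas assessed histologically one day after last dose; lowest active dose (mg/kg) is the dose giving complete keratinization suppression in 50% of rats.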

## CC(=Cc1ccccc1)C(=O)Nc1ccc(C(c2ccccc2)n2ccnc2)cc1 (racemic) [Compound 445]
[1]
  IC50: 192 nM
Ovariectomized rats
  LAD (lowest active dose): >20.00 mg/kg

## C/C(=C\c1ccccc1)C(=O)Nc1ccc(C(C(C)C)n2ccnc2)cc1 (racemic) [Compound 455]
[1]
  IC50: 2.87 nM
Ovariectomized rats
  LAD (lowest active dose): 2.50 mg/kg

## Cc1ccccc1C(=Cc1ccccc1)C(=O)Nc1ccc(C(C(C)C)n2ccnc2)cc1 (racemic) [Compound 456]
[1]
  IC50: 140 nM
Ovariectomized rats
  LAD (lowest active dose): >20.00 mg/kg

## CCC(=Cc1ccccc1)C(=O)Nc1ccc(C(C(C)C)n2ccnc2)cc1 (racemic) [Compound 457]
[1]
  IC50: 25 nM
Ovariectomized rats
  LAD (lowest active dose): >20.00 mg/kg

## CCC(c1ccc(NC(=O)/C(C)=C/c2ccccc2)cc1)n1ccnc1 (racemic) [Compound 460]
[1]
  IC50: 36.3 nM
Ovariectomized rats
  LAD (lowest active dose): >20.00 mg/kg

## CC(C)C(c1ccc(NC(=O)C(F)=Cc2ccccc2)cc1)n1ccnc1 (racemic) [Compound 461]
[1]
  IC50: 16.9 nM
Ovariectomized rats
  LAD (lowest active dose): 10.00 mg/kg

## CCCCC(c1ccc(NC(=O)/C(C)=C/c2ccccc2)cc1)n1ccnc1 (racemic) [Compound 462]
[1]
  IC50: > 1000 nM
Ovariectomized rats
  LAD (lowest active dose): 20.00 mg/kg

## C/C(=C\c1ccccc1)C(=O)Nc1ccc(C(C2CCCCC2)n2ccnc2)cc1 (racemic) [Compound 463]
[1]
  IC50: 24.5 nM
Ovariectomized rats
  LAD (lowest active dose): 20.00 mg/kg

## CCC/C(=C\c1ccccc1)C(=O)Nc1ccc(C(C(C)C)n2ccnc2)cc1 (racemic) [Compound 464]
[1]
  IC50: 149 nM
Ovariectomized rats
  LAD (lowest active dose): >20.00 mg/kg

## CCCC/C(=C\c1ccccc1)C(=O)Nc1ccc(C(C(C)C)n2ccnc2)cc1 (racemic) [Compound 465]
[1]
  IC50: 50.4 nM
Ovariectomized rats
  LAD (lowest active dose): >20.00 mg/kg

## C/C(=C\c1ccccc1)C(=O)Nc1ccc(C(C)n2ccnc2)cc1 (racemic) [Compound 466]
[1]
  IC50: > 1000 nM
Ovariectomized rats
  LAD (lowest active dose): >20.00 mg/kg

## CCCC(c1ccc(NC(=O)/C(C)=C/c2ccccc2)cc1)n1ccnc1 (racemic) [Compound 467]
[1]
  IC50: 2.58 nM
Ovariectomized rats
  LAD (lowest active dose): >20.00 mg/kg

## O=C(Nc1ccc(C(C2CCCCC2)n2ccnc2)cc1)/C(=C/c1ccccc1)c1ccccc1 (racemic) [Compound 468]
[1]
  IC50: > 100 nM
Ovariectomized rats
  LAD (lowest active dose): 10.00 mg/kg

## C/C(=C\c1ccccc1)C(=O)Nc1ccc(C(C2CC2)n2ccnc2)cc1 (racemic) [Compound 469]
[1]
  IC50: > 100 nM
Ovariectomized rats
  LAD (lowest active dose): >10.00 mg/kg

## C/C(=C\c1ccccc1)C(=O)Nc1ccc(C(C2CCCC2)n2ccnc2)cc1 (racemic) [Compound 470]
[1]
  IC50: 18.7 nM
Ovariectomized rats
  LAD (lowest active dose): >20.00 mg/kg

## CC(C)C(c1ccc(NC(=O)C(=Cc2ccccc2)C2CCCC2)cc1)n1ccnc1 (racemic) [Compound 472]
[1]
  IC50: 95.1 nM
Ovariectomized rats
  LAD (lowest active dose): >20.00 mg/kg

## CC(C)C(c1ccc(NC(=O)/C(=C/c2ccccc2)C2CCCCC2)cc1)n1ccnc1 (racemic) [Compound 473]
[1]
  IC50: > 100 nM
Ovariectomized rats
  LAD (lowest active dose): >10.00 mg/kg

## C/C(=C\c1ccccc1)C(=O)Nc1ccc(C(CC(C)C)n2ccnc2)cc1 (racemic) [Compound 474]
[1]
  IC50: 15.9 nM
Ovariectomized rats
  LAD (lowest active dose): >10.00 mg/kg

## C/C(=C\c1ccccc1)C(=O)Nc1ccc(C(C2COCOC2)n2ccnc2)cc1 (racemic) [Compound 477]
[1]
  IC50: > 1000 nM
Ovariectomized rats
  LAD (lowest active dose): >10.00 mg/kg

## CCC(CC)C(c1ccc(NC(=O)/C(C)=C/c2ccccc2)cc1)n1ccnc1 (racemic) [Compound 478]
[1]
  IC50: 1.63 nM
Ovariectomized rats
  LAD (lowest active dose): 2.50 mg/kg

## C/C(=C\c1ccccc1)C(=O)Nc1ccc(C(n2ccnc2)C(C)(C)C)cc1 (racemic) [Compound 481]
[1]
  IC50: 2.83 nM
Ovariectomized rats
  LAD (lowest active dose): 10.00 mg/kg

## C/C(=C\c1ccccc1)C(=O)Nc1ccc(C(C(c2ccccc2)c2ccccc2)n2ccnc2)cc1 (racemic) [Compound 485]
[1]
  IC50: > 100 nM
Ovariectomized rats
  LAD (lowest active dose): 5.00 mg/kg

## O=C(/C=C/c1ccccc1)Nc1ccc(C(c2ccccc2)n2ccnc2)cc1 (racemic) [Compound 497]
[1]
  IC50: 37.6 nM
Ovariectomized rats
  LAD (lowest active dose): >20.00 mg/kg

## CC(C)C(c1ccc(NC(=O)/C=C/c2ccccc2)cc1)n1ccnc1 (racemic) [Compound 502]
[1]
  IC50: 32.9 nM
Ovariectomized rats
  LAD (lowest active dose): 5.00 mg/kg

## CC(C)C(c1ccc(NC(=O)C=C(c2ccccc2)c2ccccc2)cc1)n1ccnc1 (racemic) [Compound 511]
[1]
  IC50: 10.5 nM
Ovariectomized rats
  LAD (lowest active dose): >20.00 mg/kg

## CC(=CC(=O)Nc1ccc(C(c2ccc(Cl)cc2)n2ccnc2)cc1)c1ccccc1 (racemic) [Compound 512]
[1]
  IC50: 616 nM
Ovariectomized rats
  LAD (lowest active dose): >20.00 mg/kg

## CCCCC(=CC(=O)Nc1ccc(C(c2ccc(Cl)cc2)n2ccnc2)cc1)c1ccccc1 (racemic) [Compound 513]
[1]
  IC50: 860 nM
Ovariectomized rats
  LAD (lowest active dose): >20.00 mg/kg

## C/C=C(\C)C(=O)Nc1ccc(C(C(C)C)n2ccnc2)cc1 (racemic) [Compound 574]
[1]
  IC50: 1.78 nM
Ovariectomized rats
  LAD (lowest active dose): 20.00 mg/kg

## C/C(=C\c1cccnc1)C(=O)Nc1ccc(C(C(C)C)n2ccnc2)cc1 (racemic) [Compound 575]
[1]
  IC50: 25.7 nM
Ovariectomized rats
  LAD (lowest active dose): 20.00 mg/kg

## C/C(=C\c1cccc(Cl)c1)C(=O)Nc1ccc(C(C(C)C)n2ccnc2)cc1 (racemic) [Compound 577]
[1]
  IC50: 42.3 nM
Ovariectomized rats
  LAD (lowest active dose): 10.00 mg/kg

## CC(=Cc1cccc(C(F)(F)F)c1)C(=O)Nc1ccc(C(C(C)C)n2ccnc2)cc1 (racemic) [Compound 578]
[1]
  IC50: 7.67 nM
Ovariectomized rats
  LAD (lowest active dose): >10.00 mg/kg

## CC(=Cc1ccc(Cl)cc1)C(=O)Nc1ccc(C(C(C)C)n2ccnc2)cc1 (racemic) [Compound 579]
[1]
  IC50: 12.4 nM
Ovariectomized rats
  LAD (lowest active dose): 10.00 mg/kg

## COc1ccc(/C=C(\C)C(=O)Nc2ccc(C(C(C)C)n3ccnc3)cc2)cc1 (racemic) [Compound 582]
[1]
  IC50: 1.58 nM
Ovariectomized rats
  LAD (lowest active dose): >10.00 mg/kg

## C/C(=C\c1ccc(F)cc1)C(=O)Nc1ccc(C(C(C)C)n2ccnc2)cc1 (racemic) [Compound 583]
[1]
  IC50: 2.78 nM
Ovariectomized rats
  LAD (lowest active dose): 10.00 mg/kg

## C/C(=C\c1ccccc1F)C(=O)Nc1ccc(C(C(C)C)n2ccnc2)cc1 (racemic) [Compound 585]
[1]
  IC50: 7.21 nM
Ovariectomized rats
  LAD (lowest active dose): 10.00 mg/kg

## CC(=Cc1cccc(F)c1)C(=O)Nc1ccc(C(C(C)C)n2ccnc2)cc1 (racemic) [Compound 586]
[1]
  IC50: 3.74 nM
Ovariectomized rats
  LAD (lowest active dose): >10.00 mg/kg

## CC(=CCCc1ccccc1)C(=O)Nc1ccc(C(C(C)C)n2ccnc2)cc1 (racemic) [Compound 587]
[1]
  IC50: 31.6 nM
Ovariectomized rats
  LAD (lowest active dose): >10.00 mg/kg

## C/C(=C\Cc1ccccc1)C(=O)Nc1ccc(C(C(C)C)n2ccnc2)cc1 (racemic) [Compound 589]
[1]
  IC50: 2.75 nM
Ovariectomized rats
  LAD (lowest active dose): 10.00 mg/kg

## C/C(=C\c1ccc2ncccc2c1)C(=O)Nc1ccc(C(C(C)C)n2ccnc2)cc1 (racemic) [Compound 590]
[1]
  IC50: 2.78 nM
Ovariectomized rats
  LAD (lowest active dose): >10.00 mg/kg

## C/C(=C\c1ccc2ccccc2c1)C(=O)Nc1ccc(C(C(C)C)n2ccnc2)cc1 (racemic) [Compound 591]
[1]
  IC50: 40.1 nM
Ovariectomized rats
  LAD (lowest active dose): >10.00 mg/kg

## C/C(=C\c1ccnc2ccccc12)C(=O)Nc1ccc(C(C(C)C)n2ccnc2)cc1 (racemic) [Compound 592]
[1]
  IC50: 4.15 nM
Ovariectomized rats
  LAD (lowest active dose): >10.00 mg/kg

## C/C(=C\c1cccc2ccccc12)C(=O)Nc1ccc(C(C(C)C)n2ccnc2)cc1 (racemic) [Compound 593]
[1]
  IC50: 2.7 nM
Ovariectomized rats
  LAD (lowest active dose): >10.00 mg/kg

## C/C(=C\c1ccco1)C(=O)Nc1ccc(C(C(C)C)n2ccnc2)cc1 (racemic) [Compound 594]
[1]
  IC50: 4.81 nM
Ovariectomized rats
  LAD (lowest active dose): >10.00 mg/kg

## C/C(=C\c1cccs1)C(=O)Nc1ccc(C(C(C)C)n2ccnc2)cc1 (racemic) [Compound 595]
[1]
  IC50: 3.83 nM
Ovariectomized rats
  LAD (lowest active dose): 10.00 mg/kg

## C/C(=C\c1ccsc1)C(=O)Nc1ccc(C(C(C)C)n2ccnc2)cc1 (racemic) [Compound 596]
[1]
  IC50: 7.92 nM
Ovariectomized rats
  LAD (lowest active dose): 10.00 mg/kg

## C=C(C)C(=O)Nc1ccc(C(C(C)C)n2ccnc2)cc1 (racemic) [Compound 597]
[1]
  IC50: 5 nM
Ovariectomized rats
  LAD (lowest active dose): >10.00 mg/kg

## C/C(=C\c1ccc2[nH]c(=O)ccc2c1)C(=O)Nc1ccc(C(C(C)C)n2ccnc2)cc1 (racemic) [Compound 598]
[1]
  IC50: 23.9 nM
Ovariectomized rats
  LAD (lowest active dose): >10.00 mg/kg

## C/C(=C\c1ccc2nn(C)nc2c1)C(=O)Nc1ccc(C(C(C)C)n2ccnc2)cc1 (racemic) [Compound 599]
[1]
  IC50: 6.36 nM
Ovariectomized rats
  LAD (lowest active dose): >20.00 mg/kg

## C/C(=C\c1ccc(C)o1)C(=O)Nc1ccc(C(C(C)C)n2ccnc2)cc1 (racemic) [Compound 601]
[1]
  IC50: 20 nM
Ovariectomized rats
  LAD (lowest active dose): 10.00 mg/kg

## C/C(=C\c1ccc2nnn(C)c2c1)C(=O)Nc1ccc(C(C(C)C)n2ccnc2)cc1 (racemic) [Compound 602]
[1]
  IC50: 25.7 nM
Ovariectomized rats
  LAD (lowest active dose): >10.00 mg/kg

## C/C(=C\c1cc(=O)[nH]c2ccccc12)C(=O)Nc1ccc(C(C(C)C)n2ccnc2)cc1 (racemic) [Compound 603]
[1]
  IC50: > 100 nM
Ovariectomized rats
  LAD (lowest active dose): >10.00 mg/kg

## C/C(=C\c1ccccn1)C(=O)Nc1ccc(C(C(C)C)n2ccnc2)cc1 (racemic) [Compound 604]
[1]
  IC50: 2.89 nM
Ovariectomized rats
  LAD (lowest active dose): >10.00 mg/kg

## CC(=Cc1cccn1C)C(=O)Nc1ccc(C(C(C)C)n2ccnc2)cc1 (racemic) [Compound 605]
[1]
  IC50: 14 nM
Ovariectomized rats
  LAD (lowest active dose): >10.00 mg/kg

## CCOc1c(F)c(F)c(/C=C(\C)C(=O)Nc2ccc(C(C(C)C)n3ccnc3)cc2)c(F)c1F (racemic) [Compound 606]
[1]
  IC50: 13.6 nM
Ovariectomized rats
  LAD (lowest active dose): >10.00 mg/kg
